Data taken from ChEMBL document CHEMBL4627373, “Antitubercular Ilamycins from Marine-Derived Streptomyces atratus SCSIO ZH16 ΔilaR” (J Nat Prod, 2020).
*1 amine or outer side, *2 acyl side, *3 side chain or, on linkers, in order; H or OH if unused. Where a SMILES comes first, the peptide text is derived from it. [ ]: non-standard residue; d: D form. Trp(1-(1,1-Me2-allyl)) = C=CC(C)(C)n1cc(C[C@H](N)C(=O)O)c2ccccc21; X6 = C=C[C@](C)(CO)n1cc(C[C@H](N[*:1])C(=O)[*:2])c2ccccc21; Tyr(3-NO2) = N[C@@H](Cc1ccc(O)c([N+](=O)[O-])c1)C(=O)O; X7 = CN([C@@H](C[C@@](C)(O)C(=O)O)C(=O)[*:2])[*:1]; X2 = CN([C@@H](C[C@H](CO)C(=O)O)C(=O)[*:2])[*:1]; X4 = C[C@H](C[C@@H](C(=O)[*:2])N(C)[*:1])C(=O)O; X1 = CN([C@@H](C[C@@](C)(O)CO)C(=O)[*:2])[*:1]; X5 = O=CNc1cc(C[C@H](N[*:1])C(=O)[*:2])ccc1O; X3 = CN([C@@H](CC(CO)CO)C(=O)[*:2])[*:1]; Gly(E-crotyl) = C/C=C/C[C@H](N)C(=O)O; NMeMet(O) = CN[C@@H](CCS(C)=O)C(=O)O; NMeL = CN[C@@H](CC(C)C)C(=O)O

Key:
[1] = system: Mycobacterium tuberculosis; test: Antitubercular activity against Mycobacterium tuberculosis H37Rv assessed as reduction in microbial growth by broth dilution method; assay type: functional
[2] = Cytotoxicity against human HUVEC12 cells assessed as reduction in cell viability after 24 hrs by CCK8 assay; assay type: cell-based
HepG2 = test: Cytotoxicity against human HepG2 cells assessed as reduction in cell viability after 24 hrs by CCK8 assay; assay type: functional, cell-based; conditions: HepG2, 24 h
L02 = test: Cytotoxicity against human LO2 cells assessed as reduction in cell viability after 24 hrs by CCK8 assay; assay type: cell-based; conditions: L02, 24 h
HeLa = test: Cytotoxicity against human HeLa cells assessed as reduction in cell viability after 24 hrs by CCK8 assay; assay type: functional, cell-based
RKO = test: Cytotoxicity against human RKO cells assessed as reduction in cell viability after 24 hrs by CCK8 assay; assay type: functional, cell-based
A549 = test: Cytotoxicity against human A549 cells assessed as reduction in cell viability after 24 hrs by CCK8 assay; assay type: functional, cell-based; conditions: A549, 24 h
MCF7 = test: Cytotoxicity against human MCF7 cells assessed as reduction in cell viability after 24 hrs by CCK8 assay; assay type: functional, cell-based; conditions: MCF7, 24 h

SMILES | MIC [1] [µM] | IC50 [2] [µM] | IC50 (HepG2) [µM] | IC50 (L02) [µM] | IC50 (HeLa) [µM] | IC50 (RKO) [µM] | IC50 (A549) [µM] | IC50 (MCF7) [µM]
C=CC(C)(C)n1cc(C[C@@H]2NC(=O)[C@H](C/C=C/C)NC(=O)[C@H](CC(C)C)NC(=O)[C@H](C[C@@H](C)C(=O)O)N(C)C(=O)[C@H](C)NC(=O)[C@H](Cc3ccc(O)c([N+](=O)[O-])c3)NC(=O)[C@H](CC(C)C)N(C)C2=O)c2ccccc21 (cyclo(A[X4]L[Gly(E-crotyl)][Trp(1-(1,1-Me2-allyl))][NMeL][Tyr(3-NO2)])) | 1.2 | > 50 | > 50 | > 50 | > 50 | > 50 | > 50 | > 50
C=CC(C)(C)n1cc(C[C@@H]2NC(=O)[C@H](C/C=C/C)NC(=O)[C@H](CC(C)C)NC(=O)[C@H](C[C@@](C)(O)CO)N(C)C(=O)[C@H](C)NC(=O)[C@H](Cc3ccc(O)c([N+](=O)[O-])c3)NC(=O)[C@H](CC(C)C)N(C)C2=O)c2ccccc21 (cyclo(A[X1]L[Gly(E-crotyl)][Trp(1-(1,1-Me2-allyl))][NMeL][Tyr(3-NO2)])) | 2.3 | > 50 | > 50 | > 50 | 49 | > 50 | > 50 | > 50
C=C[C@](C)(CO)n1cc(C[C@@H]2NC(=O)[C@H](C/C=C/C)NC(=O)[C@H](CC(C)C)N3C(=O)[C@H](C[C@H](C)[C@H]3O)N(C)C(=O)[C@H](C)NC(=O)[C@H](Cc3ccc(O)c([N+](=O)[O-])c3)NC(=O)[C@H](CC(C)C)N(C)C2=O)c2ccccc21 | 0.0096 | 47 | > 50 | 31 | 28 | 19 | 34 | 33
C=C[C@](C)(CO)n1cc(C[C@@H]2NC(=O)[C@H](C/C=C/C)NC(=O)[C@H](CC(C)C)NC(=O)[C@H](C[C@@H](C)C(=O)O)N(C)C(=O)[C@H](C)NC(=O)[C@H](Cc3ccc(O)c([N+](=O)[O-])c3)NC(=O)[C@H](CC(C)C)N(C)C2=O)c2ccccc21 (cyclo(A[X4]L[Gly(E-crotyl)][X6][NMeL][Tyr(3-NO2)])) | 9.5 | 48 | > 50 | 49 | 45 | > 50 | 30 | > 50
C=CC(C)(C)n1cc(C[C@@H]2NC(=O)[C@H](C/C=C/C)NC(=O)[C@H](CC(C)C)NC(=O)[C@H](C[C@H](CO)C(=O)O)N(C)C(=O)[C@H](C)NC(=O)[C@H](Cc3ccc(O)c([N+](=O)[O-])c3)NC(=O)[C@H](CC(C)C)N(C)C2=O)c2ccccc21 (cyclo(A[X2]L[Gly(E-crotyl)][Trp(1-(1,1-Me2-allyl))][NMeL][Tyr(3-NO2)])) | 9.5 | > 50 | > 50 | > 50 | > 50 | > 50 | > 50 | > 50
C=CC(C)(C)n1cc(C[C@@H]2NC(=O)[C@H](C/C=C/C)NC(=O)[C@H](CC(C)C)N3C(=O)[C@H](C[C@H](C)[C@H]3OC)N(C)C(=O)[C@H](C)NC(=O)[C@H](Cc3cccc([N+](=O)[O-])c3)NC(=O)[C@H](CC(C)C)N(C)C2=O)c2ccccc21 | 1.2 | – | – | – | – | – | – | –
C=CC(C)(C)n1cc(C[C@@H]2NC(=O)[C@H](C/C=C/C)NC(=O)[C@H](CC(C)C)NC(=O)[C@H](CC(CO)CO)N(C)C(=O)[C@H](C)NC(=O)[C@H](Cc3ccc(O)c([N+](=O)[O-])c3)NC(=O)[C@H](CC(C)C)N(C)C2=O)c2ccccc21 (cyclo(A[X3]L[Gly(E-crotyl)][Trp(1-(1,1-Me2-allyl))][NMeL][Tyr(3-NO2)])) | 1.2 | > 50 | > 50 | > 50 | 17 | 41 | > 50 | 38
C=CC(C)(C)n1cc(C[C@@H]2NC(=O)[C@H](C/C=C/C)NC(=O)[C@H](CC(C)C)N3C(=O)[C@H](C[C@H](C)[C@H]3O)N(C)C(=O)[C@H](C)NC(=O)[C@H](Cc3ccc(O)c([N+](=O)[O-])c3)NC(=O)[C@H](CC(C)C)N(C)C2=O)c2ccccc21 | 0.0098 | 15 | 3.7 | 10 | 3.1 | 7.5 | 4.3 | 3.1
C=C[C@](C)(CO)n1cc(C[C@@H]2NC(=O)[C@H](C/C=C/C)NC(=O)[C@H](CC(C)C)N3C(=O)[C@H](C[C@@](C)(O)[C@H]3O)N(C)C(=O)[C@H](C)NC(=O)[C@H](Cc3ccc(O)c([N+](=O)[O-])c3)NC(=O)[C@H](CC(C)C)N(C)C2=O)c2ccccc21 | 1.4 | > 50 | > 50 | 22 | 14 | 22 | > 50 | 27
C=CC(C)(C)n1cc(C[C@@H]2NC(=O)[C@H](C/C=C/C)NC(=O)[C@H](CC(C)C)NC(=O)[C@H](C[C@@H](C)C(=O)O)N(C)C(=O)[C@H](C)NC(=O)[C@H](Cc3ccc(O)cc3)NC(=O)[C@H](CC(C)C)N(C)C2=O)c2ccccc21 (cyclo(A[X4]L[Gly(E-crotyl)][Trp(1-(1,1-Me2-allyl))][NMeL]Y)) | 10 | > 50 | > 50 | > 50 | > 50 | > 50 | > 50 | > 50
CO[C@H]1/C=C/O[C@@]2(C)Oc3c(C)c(O)c4c(O)c(c(/C=N/N5CCN(C)CC5)c(O)c4c3C2=O)NC(=O)/C(C)=C\C=C\[C@H](C)[C@H](O)[C@@H](C)[C@@H](O)[C@@H](C)[C@H](OC(C)=O)[C@@H]1C [RIFAMPIN] | 0.3 | – | – | – | – | – | – | –
C=CC(C)(C)n1cc(C[C@@H]2NC(=O)[C@H](C/C=C/C)NC(=O)[C@H](CC(C)C)NC(=O)[C@H](C[C@@H](C)C(=O)O)N(C)C(=O)[C@H](C)NC(=O)[C@H](Cc3ccc(O)c(NC=O)c3)NC(=O)[C@H](CC(C)C)N(C)C2=O)c2ccccc21 (cyclo(A[X4]L[Gly(E-crotyl)][Trp(1-(1,1-Me2-allyl))][NMeL][X5])) | 9.6 | > 50 | > 50 | > 50 | > 50 | > 50 | > 50 | > 50
C=CC(C)(C)n1cc(C[C@@H]2NC(=O)[C@H](C/C=C/C)NC(=O)[C@H](CC(C)C)NC(=O)[C@H](CC[S+](C)[O-])N(C)C(=O)[C@H](C)NC(=O)[C@H](Cc3ccc(O)c([N+](=O)[O-])c3)NC(=O)[C@H](CC(C)C)N(C)C2=O)c2ccccc21 (some centres not stated) (cyclo(A[NMeMet(O)]L[Gly(E-crotyl)][Trp(1-(1,1-Me2-allyl))][NMeL][Tyr(3-NO2)])) | 1.4 | 28 | 29 | > 50 | 14 | 37 | 25 | 22
COc1cccc2c1C(=O)c1c(O)c3c(c(O)c1C2=O)C[C@@](O)(C(=O)CO)C[C@@H]3O[C@H]1C[C@H](N)[C@H](O)[C@H](C)O1 [DOXORUBICIN] | – | 4 | 0.8 | – | 0.5 | 0.3 | 0.7 | 0.4
C=CC(C)(C)n1cc(C[C@@H]2NC(=O)[C@H](C/C=C/C)NC(=O)[C@H](CC(C)C)N3C(=O)[C@H](C[C@@H](CO)[C@H]3O)N(C)C(=O)[C@H](C)NC(=O)[C@H](Cc3ccc(O)c([N+](=O)[O-])c3)NC(=O)[C@H](CC(C)C)N(C)C2=O)c2ccccc21 | 1.4 | 12 | 22 | 16 | 7.2 | 7.3 | 19 | 5.6
C=C[C@](C)(CO)n1cc(C[C@@H]2NC(=O)[C@H](C/C=C/C)NC(=O)[C@H](CC(C)C)NC(=O)[C@H](C[C@@](C)(O)C(=O)O)N(C)C(=O)[C@H](C)NC(=O)[C@H](Cc3ccc(O)c([N+](=O)[O-])c3)NC(=O)[C@H](CC(C)C)N(C)C2=O)c2ccccc21 (cyclo(A[X7]L[Gly(E-crotyl)][X6][NMeL][Tyr(3-NO2)])) | 0.24 | > 50 | > 50 | > 50 | > 50 | > 50 | > 50 | > 50
